How the values were obtained:
[1] = system: thrombin time (TT) in rat plasma; assay: Thrombin time (TT) in rat plasma after oral administration; format: in vivo, SD male rats; settings: TT after / TT before administration
Experimental: SD male rats weighing 220±20 g which had fasted overnight were used as experimental animals. Blood taken from the hearts of the experimental animals just before administration of the test compound and at 30, 60, 120 and 240 minutes after oral administration of the test compound was mixed with 0.108M sodium citrate in the ratio of 9:1. The mixtures thereby obtained were centrifuged at 15,000 rpm for 5 minutes at 4° C. to separate the plasma, which was stored at -20° C. until the TT was measured by means of the method described below.
200 μl of Owren's buffer was added to 50 μl of the plasma and 100 μl of the diluted plasma thereby obtained was injected into the vial of a coagulometer and then incubated for 2 minutes at 37° C. To each vial was added 100 μl of thrombin at a concentration of 20 U/ml, which had prewarmed at 37° C., to measure the time (TT) until clotting occurred. The ratio of the TT in rat plasma after administration of the test compound to the TT in rat plasma before administration of the test compound was calculated.

[2] = molecular target: T1, human thrombin (Homo sapiens, UniProt P00734); assay: Inhibitory activity for thrombin (chromogenic substrate hydrolysis, 405 nm); format: biochemical; settings: for Selectivity (trypsin/thrombin): IC50 for trypsin divided by IC50 for thrombin; for IC50: human thrombin, 20 min, pH 8.0, N-benzoyl-Phe-Val-Arg-p-nitroanilide
T1 construct: purchased Sigma T-6759
In short: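 Thrombin: human enzyme (5 units/ml stock, 0.1% BSA) acted for 20 min on N-benzoyl-Phe-Val-Arg-p-nitroanilide in 125 mM NaCl, 50 mM Tris-HCl pH 8.0, with compounds dissolved in 50% methanol. Hydrolysis was read at 405 nm. Selectivity index was trypsin IC50 divided by thrombin IC50.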

[3] = system: trypsin; assay: Inhibitory activity for trypsin; format: biochemical

| Structure (SMILES) | Plasma TT ratio after administration to rat ([1]; 50 mg/kg oral) | Plasma TT ratio after administration to rat ([1]; 100 mg/kg oral) | Selectivity (trypsin/thrombin) [2] | IC50 [2] [nM] | IC50 [3] [nM] |
| --- | --- | --- | --- | --- | --- |
| CCn1c(CC[C@@H]2CCCN2C(=O)[C@H]2CCCN2C(=O)CCN)cc2ccc(C(=N)N)cc21 [Compound 155, 1-ethyl-2-[2-[(S)-1-[[(R)-1-(3-aminopropanoyl)pyrrolidin-2-yl]carbonyl]pyrrolidin-2-yl]ethyl]indole-6-carboxamidine] | 3.93 | 7.36 | 24.7 | 11.6 | 287 |
| CCn1c(CC[C@@H]2CCCN2C(=O)[C@H]2CCCN2C(=O)C[C@H](N)C(N)=O)cc2ccc(C(=N)N)cc21 [Compound 160, 1-ethyl-2-[2-[(S)-1-[[(R)-1-((S)-3-amino-3-carbamoylpropanoyl)pyrrolidin-2-yl]carbonyl]pyrrolidin-2-yl]ethyl]indole-6-carboxamidine] | 2.30 |  | 25.0 | 15.3 | 382 |
| CCn1c(CC[C@@H]2CCCN2C(=O)[C@H]2CCCN2C(C)=O)cc2ccc(C(=N)N)cc21 [Compound 171, 1-ethyl-2-[2-[(S)-1-[((R)-1-acetyl-pyrrolidin-2-yl)carbonyl]pyrrolidin-2-yl]ethyl]indole-6-carboxamidine] |  | 4.23 | 35.1 | 10.6 | 373 |
